For five molecules, MIC results are on record in ChEMBL document CHEMBL5528009, “Benzothiozinone derivatives with anti-tubercular Activity-Further side chain investigation” (Eur J Med Chem, 2024).

Test [1] relates to Mycobacterium tuberculosis. Briefly: Antitubercular activity against multidrug-resistant Mycobacterium tuberculosis clinical isolate 16,030. Type of test: functional.
The subject of test [2] is Mycobacterium tuberculosis. The test can be described thus: Antitubercular activity against multidrug-resistant Mycobacterium tuberculosis clinical isolate 16,121. Type of test: functional.

For orientation: MIC means the smallest concentration in the dilution series that meets the test's criterion for growth inhibition. With `CN(CC#CC1CCCCC1)c1nc(=O)c2cc(C(F)(F)F)cc([N+](=O)[O-])c2s1`, the MIC in test [1] and in test [2] was < 0.016 µg/mL each time.
On to `CN(CC#Cc1ccccc1)c1nc(=O)c2cc(C(F)(F)F)cc([N+](=O)[O-])c2s1`, for which the MIC in test [1] and in test [2] was < 0.016 µg/mL throughout.
Regarding `NNC(=O)c1ccncc1` [ISONIAZID], the MIC in test [1] and in test [2] was > 10 µg/mL each time.
Consider `CN(CC#Cc1cscn1)c1nc(=O)c2cc(C(F)(F)F)cc([N+](=O)[O-])c2s1`, for which the MIC in test [1] and in test [2] was < 0.016 µg/mL each time.
With `CO[C@H]1/C=C/O[C@@]2(C)Oc3c(C)c(O)c4c(O)c(c(/C=N/N5CCN(C)CC5)c(O)c4c3C2=O)NC(=O)/C(C)=C\C=C\[C@H](C)[C@H](O)[C@@H](C)[C@@H](O)[C@@H](C)[C@H](OC(C)=O)[C@@H]1C` [RIFAMPIN], the MIC in test [1] and in test [2] was > 10 µg/mL throughout.
